Reference: PubChem BioAssay AID190 (DTP/NCI, 2004)
Values joined by “and” are separate entries in the source; they are usually repeats but may differ in a detail not shown here. Identical values can stand only once. Toxic doses and inconclusive results are not listed.

Test system: AKR/Lw mice, AKR lymphoma ip, median survival T/C
Test: NCI In Vivo Anticancer Drug Screen. Data for tumor model Lymphoma AKR (Transplanted) (intraperitoneal) in AKR/Lw mice
Conditions: endpoint: median survival time, higher = longer survival
Procedure: The antitumor activity of compounds was measured in mice bearing transplantable tumors. Survival or tumor size were measured and the results are expressed as the measurement made in the treated group (T) divided by the measurement made in the vehicle treated control group (C). The tumor model used in this assay is Lymphoma AKR (Transplanted) (intraperitoneal) in AKR/Lw mice

In the case of `O=P1(NCCCl)OCCCN1CCCl` (configuration not stated), the T/C (dose: 5.0 mg/kg/injection, schedule: Q01DX009 (ip), vehicle: saline) is reported as 108 % of control, the T/C (dose: 6.25 mg/kg/injection, schedule: Q04DX003 (ip), vehicle: saline) is reported as 96 % of control and the T/C (dose: 10.0 mg/kg/injection, schedule: Q01DX009 (ip), vehicle: saline) is reported as 110 % of control and 113 % of control. The T/C (dose: 12.5 mg/kg/injection, schedule: Q04DX003 (ip), vehicle: saline) was 96 % of control, the T/C (dose: 18.7 mg/kg/injection, schedule: Q01DX001 (ip), vehicle: saline) was 95 % of control and the T/C (dose: 18.75 mg/kg/injection, schedule: Q01DX001 (ip), vehicle: saline) was 97 % of control. The T/C (dose: 25.0 mg/kg/injection, schedule: Q01DX001 (ip), vehicle: saline) was 120 % of control, the T/C (dose: 37.5 mg/kg/injection, schedule: Q01DX001 (ip), vehicle: saline) was 95 % of control and 113 % of control and the T/C (dose: 37.5 mg/kg/injection, schedule: Q04DX003 (ip), vehicle: saline) was 95 % of control. The T/C (dose: 50.0 mg/kg/injection, schedule: Q01DX001 (sc), vehicle: steriod suspending solution) was 103 % of control, the T/C (dose: 54.0 mg/kg/injection, schedule: Q01DX001 (ip), vehicle: saline with Tween-80) was 162 % of control and the T/C (dose: 54.0 mg/kg/injection, schedule: Q07DX002 (ip), vehicle: water) was 155 % of control. The T/C (dose: 60.0 mg/kg/injection, schedule: Q01DX009 (ip), vehicle: saline) was 115 % of control, the T/C (dose: 75.0 mg/kg/injection, schedule: Q07DX003 (ip), vehicle: saline) was 168 % of control and 184 % of control and 186 % of control and the T/C (dose: 80.0 mg/kg/injection, schedule: Q01DX009 (ip), vehicle: saline) was 90 % of control. The T/C (dose: 100.0 mg/kg/injection, schedule: Q07DX003 (ip), vehicle: saline) was 189 % of control, the T/C (dose: 108.0 mg/kg/injection, schedule: Q01DX001 (ip), vehicle: saline with Tween-80) was 346 % of control and the T/C (dose: 108.0 mg/kg/injection, schedule: Q07DX002 (ip), vehicle: water) was 355 % of control. For the same molecule, the T/C (dose: 125.0 mg/kg/injection, schedule: Q01DX001 (ip), vehicle: saline) was 113 % of control and 153 % of control and 222 % of control, the T/C (dose: 125.0 mg/kg/injection, schedule: Q01DX001 (sc), vehicle: steriod suspending solution) was 153 % of control and the T/C (dose: 125.0 mg/kg/injection, schedule: Q04DX003 (ip), vehicle: saline) was 182 % of control and 236 % of control. The T/C (dose: 125.0 mg/kg/injection, schedule: Q07DX003 (ip), vehicle: saline) was 157 % of control, the T/C (dose: 216.0 mg/kg/injection, schedule: Q01DX001 (ip), vehicle: saline with Tween-80) was 375 % of control and the T/C (dose: 216.0 mg/kg/injection, schedule: Q07DX002 (ip), vehicle: water) was 333 % of control. For the same molecule, the T/C (dose: 250.0 mg/kg/injection, schedule: Q01DX001 (ip), vehicle: saline) was 120 % of control and 222 % of control, the T/C (dose: 250.0 mg/kg/injection, schedule: Q01DX001 (sc), vehicle: steriod suspending solution) was 120 % of control and the T/C (dose: 250.0 mg/kg/injection, schedule: Q04DX003 (ip), vehicle: saline) was 221 % of control and 236 % of control. The T/C (dose: 300.0 mg/kg/injection, schedule: Q04DX003 (ip), vehicle: saline) was 105 % of control, the T/C (dose: 400.0 mg/kg/injection, schedule: Q01DX001 (ip), vehicle: saline) was 86 % of control and the T/C (dose: 400.0 mg/kg/injection, schedule: Q01DX001 (sc), vehicle: steriod suspending solution) was 123 % of control. The T/C (dose: 432.0 mg/kg/injection, schedule: Q01DX001 (ip), vehicle: saline with Tween-80) was 375 % of control and the T/C (dose: 600.0 mg/kg/injection, schedule: Q01DX001 (ip), vehicle: saline) was 111 % of control.
